# In EP4112046A1, “PHARMACEUTICAL COMPOSITION AND USE THEREOF” (Alphala Co., Ltd., priority 2021, dated 2023):
# Assay: Solubility in buffers or solutions, LC-MS/MS
# Format: physicochemical
# Conditions: 3 mg/mL, 37°C, 24 hrs
# Procedure: The test formulation was added into indicated buffers or solutions (ddH2O or 0.9% saline, pH 7.4) to the final concentration of 3 mg/mL, followed by sonicating for 30 mins. Next, the mixture was put into 37°C water bath for 24 hrs. The mixture was mixed well by vortex and 1 mL of mixture was transferred into the 1.5 mL eppendorf tube, followed by centrifuging at 20817 xg for 30 mins. 10 µL of the supernatant was collected, and the concentration of the collected supernatant was determined by LC-MS/MS.
smiles,measurement,setting,value
CCOC(=O)CCNC(=O)c1ccc(N[C@H](c2ccc(-c3nnc(-c4ccccc4)o3)cc2)C(C)C)cc1 [ALP001E],Solubility (mg/ml),H2O (pH7.0),< LOQ
same,Solubility (mg/ml),Saline (pH7.4),< LOQ
